Source: US11396518B2, “Solid forms of thiophene derivatives” (TIANJIN HEMAY PHARMACEUTICAL CO., LTD., priority 2018, dated 2022)

Tests used:
Format in all cases: physicochemical
[1] = Dissolution rate in water; details: about 25 mg in 900 mL of water, 37° C., rotating speed 100/minute
Protocol: An amorphous solid form of (S)—N-[5-[1-(3-ethoxy-4-methoxyphenyl)-2-(methylsulfonyl)ethyl]-4,6-dioxo-5,6-dihydro-4H-thieno[3,4-c]pyrrole-1-yl]acetamide prepared according to the process in Example 1 was tested.
About 25 mg of the amorphous solid form of (S)—N-[5-[1-(3-ethoxy-4-methoxyphenyl)-2-(methylsulfonyl)ethyl]-4,6-dioxo-5,6-dihydro-4H-thieno[3,4-c]pyrrole-1-yl]acetamide was added to 900 mL of water. The mixture was stirred at a rotating speed of 100/minute at 37° C. for 90 minutes. The supernatant was filtered and diluted. The concentration of the diluted solution (a mg/mL) was determined by ultraviolet spectrophotometer. The dissolution rate was calculated according to the formula 900a/25×100%.

[2] = Hygroscopicity (XRPD after moisture absorption at RH=80%)
Protocol: Hygroscopicity of an amorphous solid form of (S)—N-[5-[1-(3-ethoxy-4-methoxyphenyl)-2-(methylsulfonyl)ethyl]-4,6-dioxo-5,6-dihydro-4H-thieno[3,4-c]pyrrole-1-yl]acetamide was studied. The amorphous solid form of (S)—N-[5-[1-(3-ethoxy-4-methoxyphenyl)-2-(methylsulfonyl)ethyl]-4,6-dioxo-5,6-dihydro-4H-thieno[3,4-c]pyrrole-1-yl]acetamide was placed in a drier containing saturated ammonium chloride solution (RH=80%) until weight was balanced. The crystal form was tested with XRPD.
An amorphous solid form of (S)—N-[5-[1-(3-ethoxy-4-methoxyphenyl)-2-(methylsulfonyl)ethyl]-4,6-dioxo-5,6-dihydro-4H-thieno[3,4-c]pyrrole-1-yl]acetamide prepared according to the process of Example 1 was tested.

[3] = Grinding stability (XRPD after grinding)
Protocol: An amorphous solid form of (S)—N-[5-[1-(3-ethoxy-4-methoxyphenyl)-2-(methylsulfonyl)ethyl]-4,6-dioxo-5,6-dihydro-4H-thieno[3,4-c]pyrrole-1-yl]acetamide prepared according to the process of Example 1 was ground in a glass mortar for 5 minutes. The ground samples were tested with XRPD.

[4] = Pressure stability (DSC after tablet pressing); details: tablet press machine with single punch, tablet diameter 6 mm, hardness 25-30 N
Protocol: An amorphous solid form of (S)—N-[5-[1-(3-ethoxy-4-methoxyphenyl)-2-(methylsulfonyl)ethyl]-4,6-dioxo-5,6-dihydro-4H-thieno[3,4-c]pyrrole-1-yl]acetamide was pressed by tablet press machine with single punch. The diameter of the tablet was 6 mm and the hardness was 25-30 N. DSC test was carried out on pressed powder.

SMILES: CCOc1cc([C@@H](CS(C)(=O)=O)N2C(=O)c3csc(NC(C)=O)c3C2=O)ccc1OC [amorphous solid form, (S)—N-[5-[1-(3-ethoxy-4-methoxyphenyl)-2-(methylsulfonyl)ethyl]-4,6-dioxo-5,6-dihydro-4H-thieno[3,4-c]pyrrole-1-yl]acetamide]
- Dissolution Rate (%) ([1]; Time 0 min): 0%
- Dissolution Rate (%) ([1]; Time 15 min): 38.3%
- Dissolution Rate (%) ([1]; Time 30 min): 54.9%
- Dissolution Rate (%) ([1]; Time 45 min): 72.8%
- Dissolution Rate (%) ([1]; Time 60 min): 63.7%
- Moisture absorption stability (conclusion in words) ([2]; RH=80% until weight was balanced): good moisture absorption stability
- Crystal Form after Absorbing Moisture ([2]; drier with saturated ammonium chloride solution (RH=80%) until weight was balanced): Amorphous
- Crystal Form after Grinding ([3]; Grinding in a glass mortar for 5 minutes): Amorphous
- Grinding stability (conclusion in words) ([3]; ground in a glass mortar for 5 minutes): good grinding stability
- DSC curve of pressed powder compared with FIG. 2 [4]: substantially identical
- Pressure stability (conclusion in words) [4]: good stability
